Results on 12 compounds are retold here after PubChem BioAssay (NCI).

Common to all, as to assay: NCI-60 cell line screen, 48 h
Assay [1] concerns A498 renal.
The subject of assay [2] is COLO 205 colon.
Assay [3] concerns HCT-15 colon.
The test system of assay [4] is HT29 colon.
Assay [5] has as its system K-562 leukemia.
Assay [6] deals with KM12 colon.
Assay [7] concerns NCI/ADR-RES ovarian.
Assay [8] concerns SF-539 CNS.
Assay [9] relates to SK-OV-3 ovarian.
The test system of assay [10] is U251 CNS.

Values joined by “and” are separate entries in the source; they are usually repeats but may differ in a detail not shown here. Equal entries are not always repeated.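 Following 48 hours of exposure in 96-well plates, responses at five concentrations were used to interpolate endpoints linearly. GI50: concentration for 50% inhibition of growth. TGI: total growth inhibition.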 Bounds are passed on as bounds.

Regarding `O=c1[nH]n(Cc2ccccc2)c2ccc([N+](=O)[O-])cc12`, the TGI in assay [1], in assay [2], in [3], in assay [4], in assay [5] and in [6] was above 100 µM in each case. Further, the TGI in [7], in assay [8], in assay [9] and in [10] was above 100 µM each time.
For the compound `CN(C)CCCNc1ccc2nnn3c4ccc(O)cc4c(=O)c1c23`, the TGI in [1] is 20.1 µM; in assay [2], 15.8 µM; in assay [3], 19.7 µM; in assay [4] it was 15.6 µM; in assay [5], above 57.2 µM; in assay [6], 13.5 µM. For the same compound, the TGI in assay [7] was determined as 21.8 µM; in [8] it was 19.6 µM; in [9], 23.4 µM; in assay [10] it was 18.7 µM.
Take `C#CCn1c(=O)c(C)cn(/C(=C\C(=O)OCC)C(=O)OCC)c1=O`: the TGI in assay [1] is 40.8 µM; in [2], 3.12 µM; in assay [3], 8.23 µM; in [4], 4.03 µM; in assay [5] it was above 100 µM; in assay [6] it was 53.6 µM. In addition, the TGI is 17.1 µM in [7], 4.25 µM in assay [8], above 56.4 µM in assay [9] and 15 µM in assay [10]. In assay [2], the GI50 is 1.52 µM.
Consider `CCOP(=O)(O)CN1CCNCCN(CP(=O)(O)OCC)CCNCC1`, for which the TGI in assay [1], in assay [2], in assay [3], in assay [4], in assay [5] and in assay [6] was above 100 µM in each case. The TGI in assay [7], in assay [8], in assay [9] and in [10] was above 100 µM each time.
For `CC(=O)NC1C(OCc2ccccc2)OC(CO)C(O)C1OC(C)C(=O)NC(C(=O)NC(CCC(=O)NCCCCNc1c2ccccc2nc2cccc([N+](=O)[O-])c12)C(N)=O)C(C)C` (stereo not given), the TGI was 4.74 µM in [1]; 11.6 µM in assay [2]; 40.2 µM in [3]; 8.71 µM in assay [4]; above 100 µM in assay [5]; 7.68 µM in [6]. The TGI in assay [7] is above 100 µM; in assay [8], 11.2 µM; in [9], above 63.3 µM; in assay [10] it was above 56.7 µM.
As for `CC(C)(C)OC(=O)NCC(CNC(=O)OC(C)(C)C)c1nc(C(N)=O)cs1`, the TGI in assay [1], in [2], in assay [3], in assay [4], in assay [5] and in assay [6] was above 100 µM in each case. In addition, the TGI in [7], in assay [8], in assay [9] and in assay [10] was above 100 µM in each case.
As to `Cc1nn(-c2ccccc2)c(C)c1/C=N/N=C1\S/C(=C\c2ccc(Cl)cc2)C(=O)N1c1ccccc1`, the TGI in [1], in assay [2], in [3], in assay [4], in [5] and in assay [6] was above 100 µM each time. For the same compound, the TGI in assay [7], in assay [8], in [9] and in [10] was above 100 µM throughout.
`CN1CC2=C(NC(=S)NC2c2ccccc2)/C(=C/c2ccccc2)C1` (stereo not given): the TGI in assay [1] was above 100 µM; in assay [2], above 100 µM; in assay [3], above 100 µM; in [4], 71.7 µM; in [5], above 100 µM; in assay [6], 68 µM. For the same compound, the TGI in [7] is above 100 µM; in assay [8], above 100 µM; in assay [9], 61.8 µM; in [10], above 100 µM.
For the compound `O=C(O)COc1cc(-c2ccccc2)nc2cc(F)ccc12`, the TGI in [1], in assay [2], in assay [3], in [4], in assay [5] and in assay [6] was above 100 µM in each case. The TGI in [7], in assay [8], in assay [9] and in assay [10] was above 100 µM in each case.
Take `CCCCCCCCCCCCCCCCCCNc1nc(=O)n(C2CC(O)C(COP(=O)(O)O)O2)cc1F` (stereo not given): the TGI in assay [1], in assay [2], in assay [3], in assay [4], in [5] and in assay [6] was above 100 µM each time. The TGI in assay [7], in assay [8], in assay [9] and in assay [10] was above 100 µM each time.
Turning to `CC1=C2C(=CO[C@H](C)[C@H]2C)C(=O)C(C(=O)O)=C1O`, the GI50 in [1] is 32.7 µM; in assay [2] it was 22.1 µM; in assay [3], 19.6 µM; in [4], 18.3 µM; in [5] it was 36.9 µM; in assay [6] it was 19.2 µM. The GI50 in assay [7] was 26.9 µM; in assay [8] it was 23.9 µM; in [9] it was 28 µM; in assay [10], 18.8 µM. For the same compound, the TGI is 77.3 µM and 45.8 µM in assay [2]; 60.3 µM and 40.8 µM in assay [3]; 63.9 µM and 88.9 µM in assay [4]; 54.8 µM in [5]; 87.5 µM and 48.8 µM in assay [6]; 79.4 µM and 152 µM in assay [7]. Moreover, the TGI in assay [8] was 30.3 µM and 59.2 µM; in assay [9] it was 88 µM and 150 µM; in assay [10], 43.4 µM and 41 µM.
As for `CCOC(=O)c1cc2c([N+](=O)[O-])c(N)ccc2s1`, the TGI in assay [1], in assay [2], in [3], in [4], in assay [5] and in [6] was above 100 µM in each case. Also, the TGI in assay [7], in assay [8], in assay [9] and in [10] was above 100 µM in each case.
